# Reference: US20080076827A1, “Treatment of Inflammatory Bowel Disease” (priority 2004, published 2008)
# Experiments:
# [1] = test system: TNFα; experiment: LPS-induced TNF alpha release in mice; assay type: in vivo, Balb C ByJ mice; settings: oral route, 30 min before 1 mg/kg i.p. LPS; serum 2 hours after LPS; ELISA
# Protocol: 7 week-old Balb C ByJ mice (24-28 g) were administered, either by i.p. (5 ml/kg) or oral (10 ml/kg) administration, with vehicle or test article. 30 minutes later these animals were challenged with an intraperitoneal injection of 1 mg/kg LPS. 2 hours after LPS challenge, blood samples were collected under light isoflurane anaesthesia into normal tubes by retro-orbital puncture. Samples were allowed to clot at room temperature and then spun at 6000 g for 3 min at 4° C. Serum was stored at −20° C. until use. Serum TNFα and IL-10 levels were analysed in duplicate by ELISA technique.
# [2] = test system: dextran sulphate-induced colonic inflammation; experiment: Dextran sulphate-induced IBD model; assay type: in vivo, BDF1 male mice; settings: rectal route twice a day for 5 days
# Protocol: 8-10 week-old BDF1 male mice (˜30 g) were housed in normal conditions. At the start of the study, normal water was exchanged for a 2.5% dextran sulphate solution to induce colonic inflammation. Concurrently actarit and the positive control budesonide were administered rectally twice a day for 5 days. On day 6 the animals were sacrificed and the large intestine was removed. The lower two-thirds were assessed for histological severity (scoring system; 1 mild to 4 severe).
smiles,measurement,setting,value
"CC(=O)Nc1ccc(CC(=O)O)cc1 [actarit, 4-(acetylamino)benzeneacetic acid]",inhibition of serum TNFalpha levels after intraperitoneal LPS administration,[1],dose-dependant inihibition of TNFalpha levels
same,pathological and histological lesions,"[2]; 2.5% dextran sulphate in drinking water, large intestine assessed day 6",can ameliorate pathological and histological lesions
same,gross histological scores (scoring system; 1 mild to 4 severe),"[2]; 2.5% dextran sulphate, compared with 0.1 mg/kg rectal budesonide","reduced gross histological scores induced by dextran sulphate in the drinking water of BDF1 mice, over and above the effect seen for 0.1 mg/kg rectal budesonide"
